24 compounds from patent US10017506B2, “ATX modulating agents” (BIOGEN MA INC., priority 2012, dated 2018) can be followed below.

Structures are written as SMILES.

For one experiment, the target named is T1, Human ATX protein (Homo sapiens, UniProt Q13822).
T1 construct: made in house
The experiment is described as follows: ATX biochemical FRET assay with FS-3 substrate. The settings on record: FRET substrate FS-3 2 μM, ATX 1.0 μg/mL, 30 minutes pre-incubation, 2 hours at room temperature; read-out: IC50. The text has this: ATX (Autotaxin) is a 125 KDa glycoprotein with lysophospholipase D (LPLD) activity that generates the bioactive lipid lysophosphatidic acid (LPA) from lysophosphatidylcholine (LPC). The ATX biochemical assay utilizes a FRET (fluorescence resonance energy transfer) technology platform. The fluorescence signal of FRET substrate FS-3 is quenched due to intra-molecular FRET of a fluorophore to a non-fluorescing quencher (Ferguson, C. G., et al., Org Lett. 2006 May 11; 8(10): 2023-2026, which is incorporated by reference in its entirety). ATX catalyzes the hydrolysis of the substrate which separates the dabsyl quencher from the fluorescein reporter, which becomes fluorescent. The reaction is monitored by a SpectraMax M5 (Molecular Devices, Sunnyvale, Calif.) with at excitation wavelength 485 nm and emission wavelength […].
Fatty acid free-BSA (Sigma A8806): 10 mg/mL in H2O, stored at 4° C.
2×ATX assay buffer: 100 mM Tris, 280 mM NaCl, 10 mM KCl, 2 mM CaCl2, 2 mM MgCl2, pH 7.4.
Human ATX protein: expressed and purified in house. Stored at −80° C.
Substrate FS-3 (Echelon, L-2000): 100 μg in 77.74 μL H2O (1 mM stock), stored at −20° C.
384-well flat bottom plates—Corning #3575.
Compound dilution—All compounds were provided at 10 mM in 100% DMSO. In the first well, 2 μL of 10 mM compound was added to 78 μL of DMSO (1:40 dilution). In subsequent wells 3-fold dilution (total 10 dilutions) were performed.
1×ATX assay buffer was made up with a final concentration of 1 mg/mL fatty acid free-BSA using 2×ATX assay buffer, 10 mg/ml fatty acid free-BSA and ddH2O.
ATX protein was diluted with 1×ATX assay buffer to a concentration of 1.32 μg/mL (1.32×). 38 μL was added per well to the assay plate. The final concentration of ATX in the reaction as 1.0 μg/mL.
2 μL per well of compounds was transferred to provide the desired concentration. The plate was centrifuged, then incubated at room temperature for 30 minutes on the shaker.
Then, 10 μL was added per well to the assay plate. […] The plate was centrifuged. The plate was kept shaking at room temperature for 2 hours. Because FS-3 substrate is light sensitive, plates were kept covered and protected from light.
Fluorescence was measured using SpectraMax M5 (excitation at 485 nm/emission at 538 nm, top read).
Consider `CCC(N[C@H]1C[C@@H](C(=O)O)C1(C)C)c1ccc2ccc(O[C@H]3CC[C@@H](C(F)(F)F)CC3)c(Cl)c2c1` (stereo partly drawn) [Example 32, (1R,3S)-3-((1-(8-chloro-7-((cis-4-(trifluoromethyl)cyclohexyl)oxy)naphthalen-2-yl)propyl)amino)-2,2-dimethylcyclobutanecarboxylic acid], for which the IC50 (usually the concentration needed to halve the response being measured) was not above 500 nM.

Regarding `O=C(O)C1CCN(Cc2ccc3ccc(O[C@H]4CC[C@@H](C(F)(F)F)CC4)c(C(F)(F)F)c3c2)CC1` [Example 43, 1-((8-(trifluoromethyl)-7-((cis-4-(trifluoromethyl)cyclohexyl)oxy)naphthalen-2-yl)methy 1)piperidine-4-carboxylic acid], the IC50 is not above 500 nM.

For `CC(c1ccc2ccc(O[C@H]3CC[C@@H](C(F)(F)F)CC3)c(C(F)(F)F)c2c1)N1CCC(C(=O)O)CC1` (stereo partly drawn) [Example 44, 1-(1-(8-(trifluoromethyl)-7-((cis-4-(trifluoromethyl)cyclohexyl)oxy)naphthalen-2-yl)ethyl)piperidine-4-carboxylic acid], the IC50 is not above 100 nM.

Regarding `CCC(c1ccc2ccc(O[C@H]3CC[C@@H](C(F)(F)F)CC3)c(C(F)(F)F)c2c1)N1CCC(C(=O)O)CC1` (stereo partly drawn) [Example 45, 1-(1-(8-(trifluoromethyl)-7-((cis-4-(trifluoromethyl)cyclohexyl)oxy)naphthalene-2-yl)propyl)piperidine-4-carboxylic acid], the IC50 is not above 250 nM.

With `CC[C@H]1CC[C@@H](Oc2ccc3ccc(CN4CCC(C(=O)O)CC4)cc3c2C(F)(F)F)CC1` [Example 50, 1-((7-((cis-4-ethylcyclohexyl)oxy)-8-(trifluoromethyl)naphthalen-2-yl)methyl)piperidine-4-carboxylic acid], the IC50 was not above 500 nM.

As to `CC[C@H]1CC[C@@H](Oc2ccc3ccc(CN4CCC[C@H](CC(=O)O)C4)cc3c2C(F)(F)F)CC1` [Example 53, 2-((R)-1-((7-((cis-4-ethylcyclohexyl)oxy)-8-(trifluoromethyl)naphthalen-2-yl)methyl)piperidin-3-yl)acetic acid], the IC50 was not above 500 nM.

Regarding `CC[C@H]1CC[C@@H](Oc2ccc3ccc(CNC4CC(C(=O)O)C4(C)C)cc3c2C(F)(F)F)CC1` (stereo partly drawn) [Example 54, 3-(((7-((cis-4-ethylcyclohexyl)oxy)-8-(trifluoromethyl)naphthalen-2-yl)methyl)amino)-2,2-dimethylcyclobutanecarboxylic acid], the IC50 is not above 500 nM.

Turning to `CC[C@H]1CC[C@@H](Oc2ccc3ccc(C(C)N4CCC(C(=O)O)CC4)cc3c2C(F)(F)F)CC1` (stereo partly drawn) [Example 57, 1-(1-(7-((cis-4-ethylcyclohexyl)oxy)-8-(trifluoromethyl)naphthalen-2-yl)ethyl)piperidine-4-carboxylic acid], the IC50 was not above 100 nM.

With `CC[C@H]1CC[C@@H](Oc2ccc3ccc(C(C)N4CCC[C@H](CC(=O)O)C4)cc3c2C(F)(F)F)CC1` (stereo partly drawn) [Example 58, 2-((3R)-1-(1-(7-((cis-4-ethylcyclohexyl)oxy)-8-(trifluoromethyl)naphthalen-2-yl)ethyl)piperidin-3-yl)acetic acid], the half-inhibitory concentration (IC50) was not above 250 nM.

As for `CC[C@H]1CC[C@@H](Oc2ccc3ccc(C(C)NC4CC(C(=O)O)C4(C)C)cc3c2C(F)(F)F)CC1` (stereo partly drawn) [Example 59, 3-((1-(7-((cis-4-ethylcyclohexyl)oxy)-8-(trifluoromethyl)naphthalen-2-yl)ethyl)amino)-2,2-dimethylcyclobutanecarboxylic acid], the concentration for half-maximal inhibition (IC50) was not above 100 nM.

The same experiment, now with this note: IC50, FRET substrate FS-3 2 μM, ATX 1.0 μg/mL, 30 minutes pre-incubation, 2 hours at room temperature.
`CC(c1ccc2ccc(O[C@H]3CC[C@@H](C(F)(F)F)CC3)c(Cl)c2c1)N1C2CCCC1CC(C(=O)O)C2` (stereo partly drawn) [Example 30, 9-(1-(8-chloro-7-((cis-4-(trifluoromethyl)cyclohexyl)oxy)naphthalen-2-yl)ethyl)-9-azabicyclo[3.3.1]nonane-3-carboxylic acid] registered an IC50 not above 250 nM.

As to `N#Cc1c(O[C@H]2CC[C@@H](C(F)(F)F)CC2)ccc2ccc(CN3C4CCC3CC(C(=O)O)C4)cc12` (stereo partly drawn) [Example 34, 8-((8-cyano-7-((cis-4-(trifluoromethyl)cyclohexyl)oxy)naphthalen-2-yl)methyl)-8-azabicyclo[3.2.1]octane-3-carboxylic acid], the IC50 was not above 250 nM.

In turn, `N#Cc1c(O[C@H]2CC[C@@H](C(F)(F)F)CC2)ccc2ccc(CN3C4CCCC3CC(C(=O)O)C4)cc12` (stereo partly drawn) [Example 35, 9-((8-cyano-7-((cis-4-(trifluoromethyl)cyclohexyl)oxy)naphthalen-2-yl)methyl)-9-azabicyclo[3.3.1]nonane-3-carboxylic acid] came in with an IC50 not above 250 nM.

As for `CC(c1ccc2ccc(O[C@H]3CC[C@@H](C(F)(F)F)CC3)c(C#N)c2c1)N1C2CCC1CC(C(=O)O)C2` (stereo partly drawn) [Example 37, 8-(1-(8-cyano-7-((cis-4-(trifluoromethyl)cyclohexyl)oxy)naphthalen-2-yl)ethyl)-8-azabicyclo[3.2.1]octane-3-carboxylic acid], the IC50 is not above 100 nM.

With `CC(c1ccc2ccc(O[C@H]3CC[C@@H](C(F)(F)F)CC3)c(C#N)c2c1)N1C2CCCC1CC(C(=O)O)C2` (stereo partly drawn) [Example 38, 9-(1-(8-cyano-7-((cis-4-(trifluoromethyl)cyclohexyl)oxy)naphthalen-2-yl)ethyl)-9-azabicyclo[3.3.1]nonane-3-carboxylic acid], the half-maximal inhibitory concentration (IC50) is not above 100 nM.

In turn, `CCC(c1ccc2ccc(O[C@H]3CC[C@@H](C(F)(F)F)CC3)c(C#N)c2c1)N1C2CCC1CC(C(=O)O)C2` (stereo partly drawn) [Example 40, 8-(1-(8-cyano-7-((cis-4-(trifluoromethyl)cyclohexyl)oxy)naphthalen-2-yl)propyl)-8-azabicyclo[3.2.1]octane-3-carboxylic acid] displayed an IC50 not above 500 nM.

`CCC(c1ccc2ccc(O[C@H]3CC[C@@H](C(F)(F)F)CC3)c(C#N)c2c1)N1C2CCCC1CC(C(=O)O)C2` (stereo partly drawn) [Example 41, 9-(1-(8-cyano-7-((cis-4-(trifluoromethyl)cyclohexyl)oxy)naphthalen-2-yl)propyl)-9-azabicyclo[3.3.1]nonane-3-carboxylic acid] had a 50% inhibitory concentration (IC50) not above 250 nM.

For the compound `CC(c1ccc2ccc(O[C@H]3CC[C@@H](C(F)(F)F)CC3)c(C(F)F)c2c1)N1C2CCC1CC(C(=O)O)C2` (stereo partly drawn) [Example 42, 8-(1-(8-(difluoromethyl)-7-((cis-4-(trifluoromethyl)cyclohexyl)oxy)naphthalen-2-yl)ethyl)-8-azabicyclo[3.2.1]octane-3-carboxylic acid], the 50% inhibitory concentration (IC50) is not above 100 nM.

For `[2H]C([2H])([2H])[C@@H](c1ccc2ccc(O[C@H]3CC[C@@H](C(F)(F)F)CC3)c(C(F)(F)F)c2c1)N1C2CCC1CC(C(=O)O)C2` (stereo partly drawn) [Example 46, 8-((S)-1-(8-(trifluoromethyl)-7-((cis-4-(trifluoromethyl)cyclohexyl)oxy)naphthalen-2-yl)-2,2,2-trideuteroethyl)-8-azabicyclo[3.2.1]octane-3-carboxylic acid], the half-maximal inhibitory concentration (IC50) is not above 100 nM.

On to `CC[C@H]1CC[C@@H](Oc2ccc3ccc(CN4C5CCC4CC(C(=O)O)C5)cc3c2Cl)CC1` (stereo partly drawn) [Example 48, 8-((8-chloro-7-((cis-4-ethylcyclohexyl)oxy)naphthalen-2-yl)methyl)-8-azabicyclo[3.2.1]octane-3-carboxylic acid], for which the IC50 was not above 100 nM.

`CC[C@H]1CC[C@@H](Oc2ccc3ccc(CN4C5CCC4CC(C(=O)O)C5)cc3c2C(F)(F)F)CC1` (stereo partly drawn) [Example 51, 8-((7-((cis-4-ethylcyclohexyl)oxy)-8-(trifluoromethyl)naphthalen-2-yl)methyl)-8-azabicyclo[3.2.1]octane-3-carboxylic acid]: the IC50 is not above 100 nM.

As for `CC[C@H]1CC[C@@H](Oc2ccc3ccc(CN4C5CCCC4CC(C(=O)O)C5)cc3c2C(F)(F)F)CC1` (stereo partly drawn) [Example 52, 9-((7-((cis-4-ethylcyclohexyl)oxy)-8-(trifluoromethyl)naphthalen-2-yl)methyl)-9-azabicyclo[3.3.1]nonane-3-carboxylic acid], the IC50 was not above 100 nM.

In turn, `CC[C@H]1CC[C@@H](Oc2ccc3ccc(C(C)N4C5CCC4CC(C(=O)O)C5)cc3c2C(F)(F)F)CC1` (stereo partly drawn) [Example 55, 8-(1-(7-((cis-4-ethylcyclohexyl)oxy)-8-(trifluoromethyl)naphthalen-2-yl)ethyl)-8-azabicyclo[3.2.1]octane-3-carboxylic acid] came in with an IC50 not above 100 nM.

As to `CC[C@H]1CC[C@@H](Oc2ccc3ccc(C(C)N4C5CCCC4CC(C(=O)O)C5)cc3c2C(F)(F)F)CC1` (stereo partly drawn) [Example 56, 9-(1-(7-((cis-4-ethylcyclohexyl)oxy)-8-(trifluoromethyl)naphthalen-2-yl)ethyl)-9-azabicyclo[3.3.1]nonane-3-carboxylic acid], the 50% inhibitory concentration (IC50) was not above 100 nM.
